Patent US20100185419A1, “ALGORITHM FOR DESIGNING IRREVERSIBLE INHIBITORS” (Avila Therapeutics, Inc., priority 2008, published 2010)

How the values were obtained:
HCV NS3/4A 1b protease = HCV NS3/4A 1b protease (Hepatitis C virus genotype 1b, UniProt P26662); test: biochemical
Protocol: An HCV Protease FRET Assay for HCV NS3/4A 1b Enzyme (IC50_APP) was used. The following protocol was used to generate “apparent” IC50 (IC50_APP) values. […] Protease reactions were immediately started after enzyme addition with the addition of 45 μL of the FRET substrate and monitored for 60-90 minutes at λex485/λem520 in a Synergy4 plate reader from BioTek (Winooski, Vt.).

HCV NS3/4A wild type = molecular target: T1, HCV NS3/4A wild type (Hepatitis C virus genotype 1b, UniProt P26662); test: Mass spectral analysis of intact HCV NS3/4A wild type protease; format: binding; conditions: 10-fold excess of compound, 1 hr to 3 hrs, MALDI-TOF
T1 construct: The single-chain proteolytic domain (NS4A21-32-GSGS-NS33-631) was cloned into pET-14b; His tag; made in house; host or cells: Escherichia coli BL21
T1 sequence (P26662 1013-1207, looked up, natural form): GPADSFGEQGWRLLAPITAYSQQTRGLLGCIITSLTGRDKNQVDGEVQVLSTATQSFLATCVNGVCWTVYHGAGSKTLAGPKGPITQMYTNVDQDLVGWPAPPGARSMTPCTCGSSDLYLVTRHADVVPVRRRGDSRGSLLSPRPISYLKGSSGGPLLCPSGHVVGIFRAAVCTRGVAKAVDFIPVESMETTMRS
Protocol: Mass spectrometric analysis of HCV in the presence of Compound 5 was performed using the following protocol: HCV NS3/4A wild type (wt) was incubated for 1 hr at a 10× fold access of Compound 5 to protein. 2 μl aliquots of the samples were diluted with 10 μl of 0.1% TFA prior to micro C4 ZipTipping directly onto the MALDI target using Sinapinic acid as the desorption matrix (10 mg/ml in 0.1% TFA:Acetonitrile 50:50). The instrument was set in linear mode using a pulsed extraction setting of 24,500 and apomyoglobin as the standard to calibrate the instrument.
100 pmols of HCV wild type (Bioenza CA) was incubated with compound for 1 hr and 3 hrs at 10-fold access of Compound 6 to protein. 1 μl aliquots of the samples (total volume of 4.24 ul) were diluted with 10 μl of 0.1% TFA prior to micro C4 ZipTipping directly onto the MALDI target using Sinapinic acid as the desorption matrix (10 mg/ml in 0.1% TFA:Acetonitrile 50:50). Analyses were performed on a Shimadzu Biotech Axima TOF^2 (Shimadzu Instruments) matrix-assisted-laser desorption/ionization Time-of-Flight (MALDI-TOF) mass spectrometer.

[1] = system: Btk signaling in Ramos cells; test: Btk Ramos cellular assay (PLCγ2 phosphorylation); format: cell-based; conditions: Homo sapiens, 1 μM compound
Protocol: Compounds CNX-85 was assayed in Ramos human Burkitt lymphoma cells. Ramos cells were grown in suspension in T225 flasks, spun down, resuspended in 50 mls serum-free media and incubated for 1 hour. Compound was added to Ramos cells in serum free media to a final concentration of 1, 0.1, 0.01, or 0.001 μM. Ramos cells were incubated with compound for 1 hour, washed again and resuspended in 100 ul serum-free media. Cells were then stimulated with 1 μg of goat F(ab′)2 Anti-Human IgM and incubated on ice for 10 minutes to activate B cell receptor signaling pathways. After 10 minutes, the cells were washed once with PBS and then lysed on ice with Invitrogen Cell Extraction buffer. 16 μg total protein from lysates were loaded on gel and blots were probed for phosphorylation of the Btk substrate PLCγ2.

Btk = molecular target: T2, Btk (Homo sapiens, UniProt Q06187); test: Omnia assay for potency against Btk; conditions: biochemical assay; read-out: IC50 Btk kinase
T2 construct: purchased Invitrogen
T2 sequence (Q06187 whole entry): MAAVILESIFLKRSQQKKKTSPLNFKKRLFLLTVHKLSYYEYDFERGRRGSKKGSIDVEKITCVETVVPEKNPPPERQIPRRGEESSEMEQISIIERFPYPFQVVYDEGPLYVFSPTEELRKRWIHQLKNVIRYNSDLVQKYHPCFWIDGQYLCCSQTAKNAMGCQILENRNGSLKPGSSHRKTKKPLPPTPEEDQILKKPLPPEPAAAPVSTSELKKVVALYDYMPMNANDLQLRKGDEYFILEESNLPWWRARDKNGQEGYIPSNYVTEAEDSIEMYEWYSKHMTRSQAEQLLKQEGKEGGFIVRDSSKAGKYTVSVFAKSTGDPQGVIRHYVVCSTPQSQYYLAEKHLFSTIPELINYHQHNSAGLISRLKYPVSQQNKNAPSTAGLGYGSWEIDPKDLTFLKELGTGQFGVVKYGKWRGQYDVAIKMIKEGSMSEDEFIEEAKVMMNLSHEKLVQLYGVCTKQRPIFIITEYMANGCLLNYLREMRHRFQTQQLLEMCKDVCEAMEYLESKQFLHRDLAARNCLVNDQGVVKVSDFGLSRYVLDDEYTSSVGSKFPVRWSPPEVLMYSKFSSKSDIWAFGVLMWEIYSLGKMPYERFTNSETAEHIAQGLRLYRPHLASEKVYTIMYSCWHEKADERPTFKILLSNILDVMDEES
Protocol: The protocol below describes continuous-read kinase assays to measure inherent potency of compounds against active forms of Btk enzyme. The mechanics of the assay platform are best described by the vendor (Invitrogen, Carlsbad, Calif.) on the world wide web at invitrogen.com/site/us/en/home/Products-and-Services/Applications/Drug-Discovery/Target-and-Lead-Identification-and-Validation/KinaseBiology/KB-Misc/Biochemical-Assays/Omnia-Kinase-Assays.html. Briefly, 10× stocks of 5 nM Btk from Invitrogen, 1.13×40 μM ATP (AS001A) and 10 μM (ATP KMapp ˜[…]) Tyr-Sox conjugated peptide substrates (KCZ 1001) were prepared in 1× kinase reaction buffer consisting of 20 mM Tris, pH 7.5, 5 mM MgCl2, 1 mM EGTA, 5 mM β-glycerophosphate, 5% glycerol (10× stock, KBOO2A) and 0.2 mM DTT (DS001A).

HCV NS3/4A 1b protease, sequence (P26662 1027-1208): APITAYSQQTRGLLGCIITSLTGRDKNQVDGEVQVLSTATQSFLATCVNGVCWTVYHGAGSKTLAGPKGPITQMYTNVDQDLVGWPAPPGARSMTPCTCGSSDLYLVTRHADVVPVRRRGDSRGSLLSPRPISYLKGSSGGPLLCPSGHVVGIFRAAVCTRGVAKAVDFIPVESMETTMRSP
HCV NS3/4A 1b protease, sequence (P26662 1658-1711): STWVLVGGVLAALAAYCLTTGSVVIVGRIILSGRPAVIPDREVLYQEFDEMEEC

`C=C[C@@H]1C[C@]1(NC(=O)[C@@H]1C[C@@H](Oc2cc(-c3ccccc3)nc3cc(OC)ccc23)CN1C(=O)[C@H](CCC(=O)C=C(C)C)NC(=O)OC(C)(C)C)C(=O)NS(=O)(=O)C1CC1` [Compound 8, tert-butyl-(S)-1-((2S,4R)-2-((1R,2S)-1-(cyclopropylsulfonylcarbamoyl)-2-vinylcyclopropylcarbamoyl)-4-(7-methoxy-2-phenylquinolin-4-yloxy)pyrrolidin-1-yl)-7-methyl-1,5-dioxooct-6-en-2-ylcarbamate] was tested, and the IC50 (HCV NS3/4A 1b protease) was < 0.5 nM and the “adduct formation with HCV protease wild type” value (HCV NS3/4A wild type) was “adduct of HCV protease with the compound was formed”.
`C=CC(=O)Nc1cccc(Nc2cc(Nc3ccc(Oc4ccccc4)cc3)ncn2)c1` [Compound 10, N-{3-[6-(4-phenoxyphenylamino)-pyrimidin-4-ylamino]phenyl}-2 propenamide] was tested, and the inhibition at 1 µM [1] was 85% and the IC50 (Btk) was 1.8 nM.
